From US12544395B2, “Combination compositions comprising a beta-lactamase inhibitor and uses thereof” (priority 2018, dated 2026)
In brackets after ≈: the same amount, converted by molar mass. Several values for one entry are separate records, joined by “and”; a condition that tells them apart may be missing. Equal values may be shown once.

Key:
KPC-2 = target: T1, KPC-2 (Klebsiella pneumoniae, UniProt Q9F663); assay: Beta-lactamase enzyme inhibition (IC50); format: biochemical
T1 construct: expressed as native untagged proteins; made in house; host or cells: E. coli BL21(DE3)

SHV-5 = target: T2, SHV-5 (Klebsiella pneumoniae, UniProt P0A3M1); assay: Beta-lactamase enzyme inhibition (IC50); format: biochemical
T2 construct: expressed as native untagged proteins; made in house; host or cells: E. coli BL21(DE3)

OXA-1 = target: T3, OXA-1 (Escherichia coli, UniProt P13661); assay: Beta-lactamase enzyme inhibition (IC50); format: biochemical
T3 construct: expressed as native untagged proteins; made in house; host or cells: E. coli BL21(DE3)

VIM-2 = target: T4, VIM-2 (Escherichia coli, UniProt Q5U7L7); assay: Beta-lactamase enzyme inhibition (IC50); format: biochemical
T4 construct: expressed as native untagged proteins; made in house; host or cells: E. coli BL21(DE3)
Method: For VIM-2 metallo beta-lactamase, the procedure was identical with the following exceptions, first the protein was not pH adjusted to pH 5 with 50 mM sodium acetate, second, the chromatography step was changed to a 5 ml Q sepharose anion exchange column pre-equilibrated with 50 mM Hepes pH 7.5, and elution of the protein was achieved by a linear gradient of NaCl (0-600 mM). Finally, the VIM-2 purification required a second run (3rd step) on the Q sepharose anion exchange column to achieve acceptable purity (>90%).

NDM-1 = target: T5, NDM-1 (Klebsiella pneumoniae, UniProt C7C422); assay: Beta-lactamase enzyme inhibition (IC50); format: biochemical
T5 construct: expressed as native untagged proteins; made in house; host or cells: E. coli BL21(DE3)

[1] = Single dose plasma pharmacokinetics (fasted and non-fasted); format: in vivo, Sprague-Dawley rats; conditions: Sprague-Dawley, rat, iv, 5 mg/kg
[2] = as above; format: in vivo, Beagle dogs; conditions: male, Beagle, dog, iv, 5 mg/kg
[3] = as above; format: in vivo, Cynomolgus monkeys; conditions: male, Cynomolgus, cynomolgus monkey, iv, 5 mg/kg
[4] = Single ascending dose pharmacokinetics, Solutol HS-15:Water (20:80); format: in vivo, Sprague-Dawley rats; conditions: male, Sprague-Dawley, rat, plasma, iv, 10 mg/kg
Method: (§1) This study included dose concentrations ranging from 2-120 mg/mL.

[5] = as above; format: in vivo, Cynomolgus monkeys; conditions: cynomolgus monkey, plasma, iv, 1 mg/kg
Method: as §1

[6] = Metabolic stability in liver S9; format: in vitro ADME, beagle dog; conditions: beagle, liver S9; Dog; test conc. 3 μM
[7] = Metabolic stability in liver S9; format: in vitro ADME, Sprague-Dawley rat; conditions: Sprague-Dawley, liver S9; Rat; test conc. 3 μM
[8] = Metabolic stability in liver S9; format: in vitro ADME, CD-1 mouse; conditions: CD-1, liver S9; Mouse; test conc. 3 μM
[9] = Metabolic stability in intestinal S9; format: in vitro ADME; conditions: intestinal S9; Human; test conc. 3 μM
[10] = Metabolic stability in intestinal S9; format: in vitro ADME, beagle dog; conditions: beagle, intestinal S9; Dog; test conc. 3 μM
[11] = Metabolic stability in intestinal S9; format: in vitro ADME, Sprague-Dawley rat; conditions: Sprague-Dawley, intestinal S9; Rat; test conc. 3 μM
[12] = Metabolic stability in intestinal S9; format: in vitro ADME, CD-1 mouse; conditions: CD-1, intestinal S9; Mouse; test conc. 3 μM
[13] = Metabolic stability in plasma; format: in vitro ADME; conditions: plasma; Human; test conc. 3 μM
[14] = Metabolic stability in plasma; format: in vitro ADME, beagle dog; conditions: beagle, plasma; Dog; test conc. 3 μM
[15] = Metabolic stability in plasma; format: in vitro ADME; conditions: Sprague-Dawley, Rat, test conc. 3 μM
[16] = Metabolic stability in plasma; format: in vitro ADME, CD-1 mouse; conditions: CD-1, plasma; Mouse; test conc. 3 μM
[17] = tested on: 21 beta-lactamase-producing Enterobacteriaceae strains; assay: Neutropenic mouse thigh infection model, dose ranging; format: in vivo, mice
[18] = tested on: K. pneumoniae UNT-023 (KPC-2); assay: MIC vs. septicemia model strain; format: cell-based; conditions: Klebsiella pneumoniae, read-out: MIC vs. K. pneumoniae UNT-023 (KPC-2)
[19] = tested on: ESBL-expressing Enterobacteriaceae (n = 33); assay: Broth microdilution MIC, ceftibuten/Compound 2 vs IV comparators; format: cell-based
[20] = tested on: KPC-expressing Enterobacteriaceae (n = 77); assay: organism not typed; format: cell-based
[21] = tested on: AmpC/CMY-expressing Enterobacteriaceae (n = 44); assay: Broth microdilution MIC, ceftibuten/Compound 2 vs IV comparators; format: cell-based

CCC(=O)N[C@H]1Cc2cccc(C(=O)O)c2OB1O [Compound 2, (R)-2-hydroxy-3-propionamido-3,4-dihydro-2H-benzo[e][1,2]oxaborinine-8-carboxylic acid]
IC50 (KPC-2): 80 nM | IC50 (SHV-5): 368 nM | IC50 (OXA-1): 66 nM | IC50 (VIM-2): 9040 nM | IC50 (NDM-1): 38100 nM | AUC(0-inf) [1]: 3710 ng·h/mL | Cmax [1]: 7100 ng/mL | AUC(0-inf) [2]: 25500 ng·h/mL | Cmax [2]: 22400 ng/mL | AUC(0-inf) [3]: 38400 ng·h/mL | Cmax [3]: 38600 ng/mL | AUC(0-inf) [4]: 6700 ng·h/mL | Cmax [4]: 23700 ng/mL | AUC(0-inf) [5]: 10000 ng·h/mL | Cmax [5]: 26000 ng/mL | half-life at 3 μM [6]: > 2 h | half-life at 3 μM [7]: > 2 h | half-life at 3 μM [8]: > 2 h | half-life at 3 μM [9]: > 2 h | half-life at 3 μM [10]: > 2 h | half-life at 3 μM [11]: > 2 h | half-life at 3 μM [12]: > 2 h | half-life at 3 μM [13]: > 2 h | half-life at 3 μM [14]: > 2 h | half-life at 3 μM [15]: > 2 h | half-life at 3 μM [16]: > 2 h | rescue of ceftibuten activity ([17]; ceftibuten 300 mg q8h human-simulated regimen with Compound 2 q8h): rescued ceftibuten activity in all 21 beta-lactamase-expressing strains | Compound 2 median exposure at which net bacterial stasis was achieved ([17]; ceftibuten 300 mg q8h human-simulated regimen, interquartile range 3.06-18.56): 8.98 mg·h/L

Nc1nc(/C(=C/CC(=O)O)C(=O)N[C@@H]2C(=O)N3C(C(=O)O)=CCS[C@H]23)cs1 [Ceftibuten, ceftibuten, reference compound]
MIC [18]: > 128 µg/mL | Number of strains at MIC value 0.5 mg/L ([19]; ESBL-expressing (n = 33)): 2 | Number of strains at MIC value 1 mg/L ([19]; ESBL-expressing (n = 33)): 4 | Number of strains at MIC value 2 mg/L ([19]; ESBL-expressing (n = 33)): 2 | Number of strains at MIC value 4 mg/L ([19]; ESBL-expressing (n = 33)): 8 | Number of strains at MIC value 8 mg/L ([19]; ESBL-expressing (n = 33)): 5 | Number of strains at MIC value 16 mg/L ([19]; ESBL-expressing (n = 33)): 1 | Number of strains at MIC value […] ([19]; ESBL-expressing (n = 33)): 2 and 3 | Number of strains at MIC value ≤0.06 mg/L ([19]; ESBL-expressing (n = 33)): 0 | Number of strains at MIC value ≥32 mg/L ([19]; ESBL-expressing (n = 33)): 6 | MIC50 ([19]; iv): 4 µg/mL (≈ 9.75 µM) | MIC90 ([19]; iv): ≥ 32 µg/mL | Number of strains at MIC value 0.5 mg/L ([20]; KPC-expressing (n = 77)): 2 | Number of strains at MIC value 1 mg/L ([20]; KPC-expressing (n = 77)): 2 | Number of strains at MIC value 2 mg/L ([20]; KPC-expressing (n = 77)): 4 | Number of strains at MIC value 4 mg/L ([20]; KPC-expressing (n = 77)): 7 | Number of strains at MIC value 8 mg/L ([20]; KPC-expressing (n = 77)): 13 | Number of strains at MIC value 16 mg/L ([20]; KPC-expressing (n = 77)): 24 | Number of strains at MIC value […] ([20]; KPC-expressing (n = 77)): 0 | Number of strains at MIC value ≤0.06 mg/L ([20]; KPC-expressing (n = 77)): 0 | Number of strains at MIC value ≥32 mg/L ([20]; KPC-expressing (n = 77)): 25 | MIC90 ([20]; iv): ≥ 32 µg/mL | Number of strains at MIC value 0.5 mg/L ([21]; AmpC/CMY-expressing (n = 44)): 0 | Number of strains at MIC value 1 mg/L ([21]; AmpC/CMY-expressing (n = 44)): 1 | Number of strains at MIC value 2 mg/L ([21]; AmpC/CMY-expressing (n = 44)): 5 | Number of strains at MIC value 4 mg/L ([21]; AmpC/CMY-expressing (n = 44)): 3 | Number of strains at MIC value 8 mg/L ([21]; AmpC/CMY-expressing (n = 44)): 7 | Number of strains at MIC value 16 mg/L ([21]; AmpC/CMY-expressing (n = 44)): 7 | Number of strains at MIC value […] ([21]; AmpC/CMY-expressing (n = 44)): 0 | Number of strains at MIC value ≤0.06 mg/L ([21]; AmpC/CMY-expressing (n = 44)): 1 | Number of strains at MIC value ≥32 mg/L ([21]; AmpC/CMY-expressing (n = 44)): 20 | MIC50 ([21]; iv): ≥ 32 µg/mL | MIC90 ([21]; iv): ≥ 32 µg/mL
